# Measurements reported in EP1978972B1, “USE OF ALKYLGLUCOSIDE ESTERS AS BETA-DEFENSIN INDUCERS” (Pierre Fabre Dermo-Cosmétique, priority 2006, dated 2007).
# Where two headings read alike, the source gives them in different places.
# Columns and labels:
# [1] = test system: hBD-2; test: cells; assay type: cell-based, human; settings: HaCat; for induction de la synthèse du peptide hBD-2: starting materials of the enzymatic synthesis, in words
# Excerpt: (§1) Il est connu de WO 97/45101 que les esters d'α-alkylglucoside peuvent être utilisés comme agent anti-microbien et/ou anti-fongique pour agir en tant que conservateur dans une composition, pour la préserver d'un développement microbien. D'autre part, les propriétés moussantes des esters de méthyl glucose sont décrites dans Desai et al (« Sofw Journal Seife, Oele, Fette, Wachse, Verlag für chemische Industrie » 1991). • Modèle cellulaire : lignée cellulaire HaCat, kératynocytes d'origine humaine, primoculture de kératinocytes humains • Modèle tissulaire : • Explants de peau normale provenant de déchet opératoire de chirurgie esthétique • Explants de gencive normale provenant de déchet opératoire de chirurgie implantatoire ou d'épithélium gingival reconstruit à partir de cellules épithéliales orales primaires • ➢ Les cellules HaCat sont ensemencées et cultivées en plaque 6 puits à 200 000 cellules/puits sous un volume de 2 ml de milieu de culture DMEM 1640 : (Ref: Invitrogen) complémenté par 10 % de sérum de veau foetal (SVF, Ref : CH30160.02 Perbio-Hyclone) pendant 18 h (sur la nuit). • ➢ A T0 les cellules sont lavées avec du tampon Phosphate (PBS, Ref: 52100-039 Invitrogen) puis privées en sérum pour les rendre quiescentes pendant 24 h (ralentissement de leur croissance et élimination de toute trace de facteurs susceptibles de perturber les effets induits par les traitements ultérieurs). • ➢ A T0+24 h les cellules sont traitées par des cytokines pro-inflammatoires (TNF-α à 10 ng/ml, IL1-β à 10 ng/ml) ou des éléments bactériens (LPS à 50 ng/ml, SEB à 100 ng/ml) ou des actifs potentiels de type « alkyle mono- ou di-ester d'α,β-butylglucoside » dilués dans du DMEM (1 ml/puits); La durée du traitement est de 3 h à 37°C. • ➢ Les kératinocytes primaires sont préparés à partir de peau normale provenant de déchet opératoire de chirurgie esthétique. […]
# La méthode de RT-PCR quantitative utilisée est décrite dans le matériel et méthode. […]
# [2] = test system: hBD-2; assay type: cell-based, human; settings: skin explant, systemic, 3 µg/ml, 2 h and 15 h, in words
# Excerpt: as §1, with “esthétique. Ils sont ensemencés et cultivés en plaque 24 puits à 60 000 cellules/puits sous un volume de 0,5 ml de milieu de culture KSFM (Ref : 37010 Invitrogen) complémenté par de l'EGF (Epidermal Growth Factor) à 1,5 ng/ml et du BPE (bovine pituitary extract) à 25 µg/ml pendant 24 h. • ➢ A J0, le milieu est remplacé par 0,5 ml de milieu KSFM complet, additionné de 1,2 nM de calcium. • ➢ A J+3, les cellules sont traitées par des cytokines pro-inflammatoires TNF-α et IL 1-β à 10 ng/ml ou des actifs potentiels de type « alkyle mono- ou di-ester d'α,β-butylglucoside » dilués dans 0,3 ml de milieu KSFM complet, en présence de 1,2 nM de calcium.” for “esthétique.”
# [3] = test system: S. aureus; test: Adhesion of S. aureus on skin explant (modified Franz cell), count of adherent bacteria; assay type: cell-based, Staphylococcus aureus; settings: topical 30 µg/ml
# Excerpt: Pour révéler le complexe Antigène-Anticorps, le kit DAKO LSAB® (DAKO Corporation) est utilisé selon les recommandations du fournisseur. La révélation est réalisée à l'aide d'un substrat de la péroxydase : la 3,3'diaminobenzidine (DAB) (DAKO Corporation). La réaction enzymatique est révélée par une coloration brune. • ➢L'adhésion des micro-organismes est réalisée dans une cellule à double compartimentation, de type cellule de Franz modifiée. • ➢Une suspension de S.aureus (CIP 53.154) équivalente à 0,5.10^7 micro-organismes est introduite au sein du compartiment supérieur de la cellule. Le dispositif est incubé de 2 h à 37°C sous une atmosphère à 5 % de CO2. A la fin de cette période d'incubation, le surnageant est retiré afin d'éliminer les bactéries non adhérentes. Les échantillons de peau sont ensuite rincés deux fois avec 1 ml de mélange DMEM/HAMF12. Un dénombrement bactérien à l'issue de cette étape donne la proportion de bactéries ayant adhéré à l'explant (T+2 h). Un témoin est réalisé dans le but de déterminer l'adhésion non spécifique des bactéries. • ➢La stimulation de l'expression des β-défensines cutanées précède l'étape d'adhésion. Son objectif est d'étudier l'impact de l'induction des peptides antimicrobiens par des actifs potentiels de type « alkyle mono- ou di-ester d'α,β-butylglucoside » sur l'adhésion de souches bactériennes. Le traitement est effectué en topique ou en systémique. Le temps de stimulation des explants cutanés est de 24 h à 37°C en présence de 5 % de CO2.
# Pour analyse, les explants sont retirés de leur cellule, des punchs de diamètres différents (3 mm, 4 mm et 6 mm) sont effectués pour un test MTT de survie, les marquages immuno-histologiques et les analyses des transcrits par RT-PCR. Le reste de peau est utilisé pour une estimation de la flore bactérienne adhérente.
# Le dénombrement de la flore bactérienne adhérente exogène par unité de surface de peau a été effectué selon deux méthodes : • par dénombrement bactérien sur milieu solide • par comptage de la radioactivité émise (la souche contaminante étant marquée au H^3) est effectuée. […]
# Après une application topique de 5 h et plusieurs rinçages de la surface épidermique d'un explant cutané, l'effet du traitement par l'α,β-LBG brut sur l'adhésion de S.aureus sur ce même explant a été quantifié par le dénombrement des germes adhérents à l'issue d'une mise en contact de 2 h. […]
# Après application topique et plusieurs rinçages de la surface épidermique des explants cutanés, l'effet du traitement par les isoformes de l'ester de laurate de butylglucoside pur à 90 %, séparées, α seul, β seul, ou en mélange α,β-LBG (56 % α/44 % β) sur l'adhésion de S. aureus sur l'épiderme a été comparé après quantification des germes adhérents par dénombrement.
compound,measurement,setting,value
CCCCCCCCCCCC(=O)O [Acide Laurique],induction de la synthèse du peptide hBD-2,[1],ne provoquent pas une induction
same,fold induction at 10 µg/mL,"[1]; Homo sapiens, hBD-2 mRNA, 3 h, 10 µg/ml, vs unstimulated control, read-out: Facteur d'induction (FI)",1.1
laurate de butylglucoside [α-LBG pur],induction de l'expression du gène hBD-2,[2]; listed as α-LBG pure,ne présente pas d'activité
laurate de butylglucoside [αβ-LBG pur],baisse moyenne de l'adhésion de S. aureus,"[3]; LBG pur à 90 %, vs untreated control",~19%
same,induction de l'expression du gène hBD-2,[2],potentiel inducteur significatif surtout après une durée de traitement longue
laurate de butylglucoside [β-LBG pur],limitation de l'adhésion de S. aureus,"[3]; comparison of isoforms, in words",en moyenne plus actif sur la limitation de l'adhésion de S. aureus que l'isoforme α-LBG
αβ-butylglucoside,induction de la synthèse du peptide hBD-2,[1],ne provoquent pas une induction
